Key:
[1] = test system: gene transcription in strain 5; test: Transcriptome analysis with added BMA, strain 5
Experimental: (§1) Transcriptome analysis was carried out to characterize transcriptional activity in mutant microorganisms using standard methods.
(§2) Sample Preparation • 1) Streak strains onto fresh MSX agar (15 g/L) plates directly from the cryostocks and incubate overnight at 37° C. • 2) Isolate single colonies and inoculate pre-cultures in MSX, using 50 ml shake flasks. Incubate overnight at 37° C. and 250 rpm. • 3) Inoculate cultures in MSX to an initial OD600 of 0.05, using 250 mL pyrex shake flasks with 24/29 neck join. Incubate at 37° C. and 250 rpm. Do 4 biological replicates (3 replicates for sequencing plus one backup)—4 flasks per strain. • 4) Seal shake flasks with sterile Suba seals. To monitor OD, take samples using a sterile syringe and needle after first swabbing the Suba seals with 70% ethanol. Monitor OD. • 5) When OD reaches 0.3, collect first sample for RNA extraction (“before” sample) into a pre-chilled falcon. Keep samples on ice. • 6) Immediately after, add 20% (v/v) BMA. Re-incubate cultures. • 7) Quickly process the samples according to the RNeasy kit protocol, until step 6 of protocol 1. Always keep samples on ice and store it at −80° C. until further use, if possible, flash freeze in liquid nitrogen it before storing. • 8) One hour after the first sample collection/BMA addition, collect the second sample for RNA extraction (“after” sample). Proceed as explained before. • 9) Continue to monitor the OD until the cultures reach 24 h. • To summarise, each strain tested will have 6 samples to send for sequencing, 3 collected right before the addition and 3 collected one hour after, plus 1 “back-up” for before and after, in case something goes wrong during extraction (8 samples total). Besides the WT strain with the addition of BMA, samples were also collected from a WT culture with no BMA, one hour after reaching OD of 0.3, as a control.
(§3) Transcription was compared for a double mutant and the wild-type in the presence and absence of BMA relative to the level in the wild type in the absence of BMA. For the avoidance of doubt the level in the table is the ratio of the level in the strain under the BMA exposure relative to the level in the wild type in the absence of added BMA.

[2] = test system: E. coli MG1655 soxR(R20H)acrR(V29G); test: Growth in MSX medium with 20% (v/v) BMA, double mutant; assay type: cell-based, Escherichia coli
[3] = test system: E. coli BW25113 isolate 22-rob(R156H) rpoB(T1037P) groL(P279L) acrR(49Yfs) 1197659(C > A); test: Growth kinetics of isolated strain 22 with 20% v/v BMA
E. coli BW 25113 = test: Growth of E. coli BW25113 (wild type) with BMA in M9 minimal medium
[4] = test system: E. coli BW25113 isolate 3-rob(R156H) ilvN(C41Y) phoP(L11F) acrB(V448L) acrR(indels); test: Growth kinetics of isolated strain 3 with 20% v/v BMA
[5] = test system: gene transcription in wild type; test: Transcriptome analysis with added BMA, wild type
Experimental: as §1, §2, §3

[6] = test system: gene transcription in strain 21; test: Transcriptome analysis with added BMA, strain 21
Experimental: as §1, §2, §3

[7] = test system: gene transcription in strain 22; test: Transcriptome analysis with added BMA, strain 22
Experimental: as §1, §2, §3

[8] = 20% (v/v) BMA added immediately after inoculation
[9] = BMA concentration increased further to 20% v/v
[10] = Wild Type, 0.05% BMA (v/v), Table 2.2
[11] = Wild Type, 0.1% BMA (v/v), Table 2.2

`C=C(C)C(=O)OCCCC` [BMA, butyl 2-methylprop-2-enoate] was tested, and the “IdhA transcription level relative to wild type without BMA” value [1] was 18.24, the “acrA transcription level relative to wild type without BMA” value [1] was 6.28 and the “acrB transcription level relative to wild type without BMA” value [1] was 7.49. For the same molecule, the “adiY transcription level relative to wild type without BMA” value [1] was 24.79, the “ariR transcription level relative to wild type without BMA” value [1] was 21.79 and the “asr transcription level relative to wild type without BMA” value [1] was 160.42. For the same molecule, the “bssR transcription level relative to wild type without BMA” value [1] was 20.35, the “ibpA transcription level relative to wild type without BMA” value [1] was 43.39 and the “ibpB transcription level relative to wild type without BMA” value [1] was 174.50. The “narG transcription level relative to wild type without BMA” value [1] was 47.85, the “nirB transcription level relative to wild type without BMA” value [1] was 34.19 and the “nirD transcription level relative to wild type without BMA” value [1] was 16.69. For the same molecule, the “pspA transcription level relative to wild type without BMA” value [1] was 23.32, the “pspB transcription level relative to wild type without BMA” value [1] was 16.87 and the “pspD transcription level relative to wild type without BMA” value [1] was 14.10. The “pspc transcription level relative to wild type without BMA” value [1] was 16.55, the “raiA transcription level relative to wild type without BMA” value [1] was 20.11 and the “rmf transcription level relative to wild type without BMA” value [1] was 15.45. For the same molecule, the “soxS transcription level relative to wild type without BMA” value [1] was 41.81, the “spy transcription level relative to wild type without BMA” value [1] was 20.88 and the “ybfA transcription level relative to wild type without BMA” value [1] was 20.19. The “ybhG transcription level relative to wild type without BMA” value [1] was 18.33, the “ybiH transcription level relative to wild type without BMA” value [1] was 15.30 and the “ydgU transcription level relative to wild type without BMA” value [1] was 48.46. For the same molecule, the “yhjx transcription level relative to wild type without BMA” value [1] was 105.59, the “yibT transcription level relative to wild type without BMA” value [1] was 29.57 and the “ymgA transcription level relative to wild type without BMA” value [1] was 16.41. For the same molecule, the “ymgC transcription level relative to wild type without BMA” value [1] was 17.15, the “ynfM transcription level relative to wild type without BMA” value [1] was 40.65 and the “yohk transcription level relative to wild type without BMA” value [1] was 16.04. For the same molecule, the “Tolerance to BMA” value ([2]; 20% (v/v) BMA added during mid-exponential phase) was “enhanced tolerance to BMA compared to the soxR(R20H) mutation alone”, the “Growth compared with the single mutant with the soxR mutation” value [2, 8] was “able to grow better than the single mutant” and the “Growth in the presence of BMA” value [2, 8] was “able to grow”. For the same molecule, the Growth rate [3] was 0.701 ± 0.015 h⁻¹, the Lag time [3] was 4 h and the Max cell concentration [3] was 0.523 ± 0.024 g/L. For the same molecule, the Growth rate (E. coli BW 25113; 0.01% v/v BMA) was 0.617 ± 0.009 h⁻¹, the Lag phase (E. coli BW 25113; 0.01% v/v BMA) was 2 h and the Max cell concentration (E. coli BW 25113; 0.01% v/v BMA) was 1.365 ± 0.120 g/L. It also gave a Growth rate (E. coli BW 25113; 0.05% v/v BMA) of 0.517 ± 0.014 h⁻¹, a Lag phase (E. coli BW 25113; 0.05% v/v BMA) of 4 h and a Max cell concentration (E. coli BW 25113; 0.05% v/v BMA) of 1.269 ± 0.074 g/L. It also gave a Growth rate (E. coli BW 25113; 0.1% v/v BMA) of 0.519 ± 0.010 h⁻¹, a Lag phase (E. coli BW 25113; 0.1% v/v BMA) of 12 h and a Max cell concentration (E. coli BW 25113; 0.1% v/v BMA) of 1.335 ± 0.074 g/L. For the same molecule, the Consistency of growth (E. coli BW 25113; [9]) was “growth was inconsistent”, the “Incubation time after which cell growth was observed” value (E. coli BW 25113; [9]) was 24 to 36 h and the “BMA concentration that inhibits the growth of E. coli” value (E. coli BW 25113; M9 minimal medium, 37° C.) was “above 0.05 % v/v”. It also gave a Growth rate (E. coli BW 25113; [10]) of 0.517 ± 0.014 h⁻¹, a Lag time (E. coli BW 25113; [10]) of 4 h and a Max cell concentration (E. coli BW 25113; [10]) of 1.269 ± 0.074 g/L. It also gave a Growth rate (E. coli BW 25113; [11]) of 0.519 ± 0.010 h⁻¹, a Lag time (E. coli BW 25113; [11]) of 12 h and a Max cell concentration (E. coli BW 25113; [11]) of 1.335 ± 0.074 g/L. The “Time after inoculation at which significant growth was exhibited” value (E. coli BW 25113; […], same conditions) was 12 h, the Growth rate [4] was 0.566 ± 0.010 h⁻¹ and the Lag time [4] was 4 h. For the same molecule, the Max cell concentration [4] was 0.790 ± 0.076 g/L, the “IdhA transcription level relative to wild type without BMA” value [5] was 0.59 and the “acrA transcription level relative to wild type without BMA” value [5] was 0.64. The “acrB transcription level relative to wild type without BMA” value [5] was 0.98, the “adiY transcription level relative to wild type without BMA” value [5] was 0.19 and the “ariR transcription level relative to wild type without BMA” value [5] was 0.44. The “asr transcription level relative to wild type without BMA” value [5] was 0.22, the “bssR transcription level relative to wild type without BMA” value [5] was 0.46 and the “ibpA transcription level relative to wild type without BMA” value [5] was 0.09. The “ibpB transcription level relative to wild type without BMA” value [5] was 0.42, the “narG transcription level relative to wild type without BMA” value [5] was 0.40 and the “nirB transcription level relative to wild type without BMA” value [5] was 0.06. For the same molecule, the “nirD transcription level relative to wild type without BMA” value [5] was 0.57, the “pspA transcription level relative to wild type without BMA” value [5] was 0.04 and the “pspB transcription level relative to wild type without BMA” value [5] was 0.73. For the same molecule, the “pspD transcription level relative to wild type without BMA” value [5] was 0.14, the “pspc transcription level relative to wild type without BMA” value [5] was 0.10 and the “raiA transcription level relative to wild type without BMA” value [5] was 0.11. For the same molecule, the “rmf transcription level relative to wild type without BMA” value [5] was 0.28, the “soxS transcription level relative to wild type without BMA” value [5] was 0.24 and the “spy transcription level relative to wild type without BMA” value [5] was 3.91. For the same molecule, the “ybfA transcription level relative to wild type without BMA” value [5] was 0.39, the “ybhG transcription level relative to wild type without BMA” value [5] was 0.19 and the “ybiH transcription level relative to wild type without BMA” value [5] was 0.04. For the same molecule, the “ydgU transcription level relative to wild type without BMA” value [5] was 7.95, the “yhjx transcription level relative to wild type without BMA” value [5] was 1.72 and the “yibT transcription level relative to wild type without BMA” value [5] was 0.09. For the same molecule, the “ymgA transcription level relative to wild type without BMA” value [5] was 0.16, the “ymgC transcription level relative to wild type without BMA” value [5] was 6.27 and the “ynfM transcription level relative to wild type without BMA” value [5] was 0.07. The “yohk transcription level relative to wild type without BMA” value [5] was 0.13, the “IdhA transcription level relative to wild type without BMA” value [6] was 20.48 and the “acrA transcription level relative to wild type without BMA” value [6] was 5.63. The “acrB transcription level relative to wild type without BMA” value [6] was 8.93, the “adiY transcription level relative to wild type without BMA” value [6] was 10.74 and the “ariR transcription level relative to wild type without BMA” value [6] was 6.13. For the same molecule, the “asr transcription level relative to wild type without BMA” value [6] was 11.63, the “bssR transcription level relative to wild type without BMA” value [6] was 198.48 and the “ibpA transcription level relative to wild type without BMA” value [6] was 29.21. For the same molecule, the “ibpB transcription level relative to wild type without BMA” value [6] was 30.97, the “narG transcription level relative to wild type without BMA” value [6] was 65.34 and the “nirB transcription level relative to wild type without BMA” value [6] was 39.43. For the same molecule, the “nirD transcription level relative to wild type without BMA” value [6] was 42.50, the “pspA transcription level relative to wild type without BMA” value [6] was 21.16 and the “pspB transcription level relative to wild type without BMA” value [6] was 14.98. For the same molecule, the “pspD transcription level relative to wild type without BMA” value [6] was 14.80, the “pspc transcription level relative to wild type without BMA” value [6] was 14.67 and the “raiA transcription level relative to wild type without BMA” value [6] was 22.55. For the same molecule, the “rmf transcription level relative to wild type without BMA” value [6] was 36.77, the “soxS transcription level relative to wild type without BMA” value [6] was 1.08 and the “spy transcription level relative to wild type without BMA” value [6] was 1.77. For the same molecule, the “ybfA transcription level relative to wild type without BMA” value [6] was 33.06, the “ybhG transcription level relative to wild type without BMA” value [6] was 9.26 and the “ybiH transcription level relative to wild type without BMA” value [6] was 7.20. The “ydgU transcription level relative to wild type without BMA” value [6] was 6.39, the “yhjx transcription level relative to wild type without BMA” value [6] was 3.11 and the “yibT transcription level relative to wild type without BMA” value [6] was 95.47. The “ymgA transcription level relative to wild type without BMA” value [6] was 2.43, the “ymgC transcription level relative to wild type without BMA” value [6] was 1.53 and the “ynfM transcription level relative to wild type without BMA” value [6] was 65.39. The “yohk transcription level relative to wild type without BMA” value [6] was 7.09, the “IdhA transcription level relative to wild type without BMA” value [7] was 25.80 and the “acrA transcription level relative to wild type without BMA” value [7] was 7.44. The “acrB transcription level relative to wild type without BMA” value [7] was 7.17, the “adiY transcription level relative to wild type without BMA” value [7] was 23.19 and the “ariR transcription level relative to wild type without BMA” value [7] was 12.95. The “asr transcription level relative to wild type without BMA” value [7] was 225.15, the “bssR transcription level relative to wild type without BMA” value [7] was 71.24 and the “ibpA transcription level relative to wild type without BMA” value [7] was 70.31. For the same molecule, the “ibpB transcription level relative to wild type without BMA” value [7] was 107.99, the “narG transcription level relative to wild type without BMA” value [7] was 61.85 and the “nirB transcription level relative to wild type without BMA” value [7] was 20.40. The “nirD transcription level relative to wild type without BMA” value [7] was 26.97, the “pspA transcription level relative to wild type without BMA” value [7] was 47.39 and the “pspB transcription level relative to wild type without BMA” value [7] was 35.43. The “pspD transcription level relative to wild type without BMA” value [7] was 38.90, the “pspc transcription level relative to wild type without BMA” value [7] was 39.73 and the “raiA transcription level relative to wild type without BMA” value [7] was 52.61. The “rmf transcription level relative to wild type without BMA” value [7] was 17.43, the “soxS transcription level relative to wild type without BMA” value [7] was 3.66 and the “spy transcription level relative to wild type without BMA” value [7] was 45.77. The “ybfA transcription level relative to wild type without BMA” value [7] was 36.33, the “ybhG transcription level relative to wild type without BMA” value [7] was 21.92 and the “ybiH transcription level relative to wild type without BMA” value [7] was 16.75. The “ydgU transcription level relative to wild type without BMA” value [7] was 94.74, the “yhjx transcription level relative to wild type without BMA” value [7] was 902.70 and the “yibT transcription level relative to wild type without BMA” value [7] was 77.30. For the same molecule, the “ymgA transcription level relative to wild type without BMA” value [7] was 6.44, the “ymgC transcription level relative to wild type without BMA” value [7] was 5.45 and the “ynfM transcription level relative to wild type without BMA” value [7] was 61.15. The “yohk transcription level relative to wild type without BMA” value [7] was 19.75.

From US11781160B2, “Methods for the production of methacrylates” (priority 2018, dated 2023)
